For test [1], the target named is T1, NLRP3 (Homo sapiens, UniProt Q96P20). Kind of test: streptavidin pull-down from HEK-293T lysates, Western blot. Details: Flag-NLRP3; Flag-NLRP3 (NACHT: 220-536aa); Flag-NLRP3 (LRR: 742-991aa). The test is classed as cell-based.
Target sequence in this assay (Q96P20 220-536): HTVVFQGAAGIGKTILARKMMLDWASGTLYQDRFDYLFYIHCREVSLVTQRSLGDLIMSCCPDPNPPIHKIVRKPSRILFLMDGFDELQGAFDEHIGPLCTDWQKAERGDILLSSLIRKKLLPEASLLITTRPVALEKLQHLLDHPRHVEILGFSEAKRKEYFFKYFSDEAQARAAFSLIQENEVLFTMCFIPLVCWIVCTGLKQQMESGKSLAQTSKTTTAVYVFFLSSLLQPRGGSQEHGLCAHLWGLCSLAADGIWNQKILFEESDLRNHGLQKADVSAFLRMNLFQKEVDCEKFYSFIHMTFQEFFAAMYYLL
In test [2] the target is T1, NLRP3. The experiment in a line: SPR, NLRP3 immobilized on CM5 chip, […] binding model. The arrangement: Recombinant human NLRP3 protein (CUSBIO, #CSB-EP822275HU3).
Target sequence in this assay (Q96P20 whole entry): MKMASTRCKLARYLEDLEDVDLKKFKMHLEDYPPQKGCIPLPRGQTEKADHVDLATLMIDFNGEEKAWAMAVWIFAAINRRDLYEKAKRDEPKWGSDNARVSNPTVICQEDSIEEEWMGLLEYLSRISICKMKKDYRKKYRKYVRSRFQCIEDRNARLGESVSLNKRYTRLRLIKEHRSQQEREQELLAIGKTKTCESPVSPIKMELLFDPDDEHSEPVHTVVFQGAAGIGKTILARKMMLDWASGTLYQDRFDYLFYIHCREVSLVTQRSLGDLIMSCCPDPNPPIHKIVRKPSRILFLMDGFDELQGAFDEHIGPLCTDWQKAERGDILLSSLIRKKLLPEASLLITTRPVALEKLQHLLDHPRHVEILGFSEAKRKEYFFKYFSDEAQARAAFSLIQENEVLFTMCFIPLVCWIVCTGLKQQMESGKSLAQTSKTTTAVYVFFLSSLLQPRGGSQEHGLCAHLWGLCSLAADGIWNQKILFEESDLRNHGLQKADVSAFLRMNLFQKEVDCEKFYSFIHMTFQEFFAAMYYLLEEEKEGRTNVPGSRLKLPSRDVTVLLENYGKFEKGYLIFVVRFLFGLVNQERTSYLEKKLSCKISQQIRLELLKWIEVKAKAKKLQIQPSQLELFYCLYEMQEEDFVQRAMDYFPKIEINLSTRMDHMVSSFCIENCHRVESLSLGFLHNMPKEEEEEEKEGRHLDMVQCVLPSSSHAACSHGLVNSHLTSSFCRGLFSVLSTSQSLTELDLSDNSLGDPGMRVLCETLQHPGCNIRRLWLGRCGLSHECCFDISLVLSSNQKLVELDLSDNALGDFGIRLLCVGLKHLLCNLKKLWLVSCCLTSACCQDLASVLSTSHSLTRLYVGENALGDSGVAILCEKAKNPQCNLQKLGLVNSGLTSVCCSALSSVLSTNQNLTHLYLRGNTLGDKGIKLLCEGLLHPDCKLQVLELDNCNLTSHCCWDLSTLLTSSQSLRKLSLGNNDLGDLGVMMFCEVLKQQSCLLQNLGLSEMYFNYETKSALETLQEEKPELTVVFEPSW

These results are taken from article PMC11881452, “Inactivation of NLRP3 inflammasome by dephosphorylation at Serine 658 alleviates glial inflammation in the mouse model of Parkinson’s disease” (Molecular Neurodegeneration, 2025).

The structures appear in SMILES notation.

In the case of `O=C1N[C@H]2[C@H](CS[C@H]2CCCCC(=O)Oc2c3occc3cc3ccc(=O)oc23)N1` [Biotinylated-Psoralen], the “streptavidin pull-down from HEK-293T lysates, Western blot” value on NLRP3 [1] is “Streptavidin pull-down assays showed that Bio-Pso specifically bound to the NACHT and LRR domains, but not the PYD domain”.
In the case of `O=c1c2ccccc2nc2n1CCc1c-2[nH]c2ccccc12` [S2349], the Kd on NLRP3 [2] came out at 146 µM.
With `O=c1ccc2cc3ccoc3cc2o1` [S4737, Psoralen], the Kd on NLRP3 [2] worked out at 209 µM.
